# According to patent US20250242035A1, “GLYCAN CONJUGATE COMPOSITIONS AND METHODS” (GANNA BIO, INC., priority 2022, published 2025):
# Experiments:
# DC-SIGNR = biological target: T1, DC-SIGNR (Homo sapiens, UniProt Q9H2X3); test: In vitro glycan array protein binding, DC-SIGNR; conditions: 20 μg/mL protein, glycan printed at 100 μM
# T1 construct: purchased R&D Systems 162-D2
# T1 sequence (Q9H2X3 1-399): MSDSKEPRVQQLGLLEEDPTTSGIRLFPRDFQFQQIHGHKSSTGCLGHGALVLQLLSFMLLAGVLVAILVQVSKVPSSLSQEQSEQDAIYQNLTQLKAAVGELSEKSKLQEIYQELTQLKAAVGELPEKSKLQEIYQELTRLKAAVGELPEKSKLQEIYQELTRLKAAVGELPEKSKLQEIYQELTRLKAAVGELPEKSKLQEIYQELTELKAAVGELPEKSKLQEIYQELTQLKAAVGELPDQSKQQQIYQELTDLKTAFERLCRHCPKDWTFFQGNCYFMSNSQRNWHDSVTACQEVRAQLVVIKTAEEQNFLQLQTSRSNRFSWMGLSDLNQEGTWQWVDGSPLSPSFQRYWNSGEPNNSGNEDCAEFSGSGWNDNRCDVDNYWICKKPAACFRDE
# Method: […]. Commercially available proteins tagged with human fragment crystallizable region (Fc) were used for the glycan array screening: DC-SIGNR (R&D Systems, 162-D2), Siglec7 (R&D Systems, 1138-SL), CD2 (R&D Systems, 1856-CD-050), CD83 (R&D Systems, 2044-CD), KLRF1 (R&D Systems, 1099-NK), CD28 (Sino Biological Inc., 11524-H41H).
# Protein samples were prepared with 1% bovine serum albumin (BSA) in tris-sucrose-magnesium chloride (TSM) buffer with additional Ca^2+ (20 mM tris-HCl, 150 mM sodium chloride, 5 mM calcium chloride, 2 mM magnesium chloride, and 0.05% Tween 20). Proteins were incubated with the glycan array for 1 hour at room temperature at the concentrations indicated in Tables 9A-9F before being washed three times with wash buffer (20 mM tris-HCl, 150 mM sodium chloride, 5 mM calcium chloride, 2 mM magnesium chloride). The arrays were then contacted with Alexa Fluor 488-labeled goat anti-human IgG (H+L) (Invitrogen A-11013) at 5 μg/ml and measured by fluorescence detection. Values in Tables 9A-9F are reported in relative fluorescence units (RFUs).
# Siglec-7 = biological target: T2, Siglec-7 (Homo sapiens, UniProt Q9Y286); test: In vitro glycan array protein binding, Siglec-7; conditions: 10 μg/mL protein, glycan printed at 100 μM
# T2 construct: purchased R&D Systems 1138-SL
# T2 sequence (Q9Y286 19-467): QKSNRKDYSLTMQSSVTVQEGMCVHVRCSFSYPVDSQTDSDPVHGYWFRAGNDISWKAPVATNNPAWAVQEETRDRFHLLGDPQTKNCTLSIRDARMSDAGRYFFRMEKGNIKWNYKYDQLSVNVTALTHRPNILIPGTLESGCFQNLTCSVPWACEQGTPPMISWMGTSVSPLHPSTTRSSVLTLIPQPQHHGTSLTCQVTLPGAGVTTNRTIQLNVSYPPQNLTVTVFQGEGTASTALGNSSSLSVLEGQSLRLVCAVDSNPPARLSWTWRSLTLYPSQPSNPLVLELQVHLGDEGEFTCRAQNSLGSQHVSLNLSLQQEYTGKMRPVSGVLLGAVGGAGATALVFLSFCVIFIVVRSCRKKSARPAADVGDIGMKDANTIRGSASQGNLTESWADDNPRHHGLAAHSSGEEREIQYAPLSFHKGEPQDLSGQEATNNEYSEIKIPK
# Primary B cells = test: In vitro glyco-siRNA internalization by stem loop qPCR, primary B cells; assay type: cell-based
# Method: (§1) Primary B cells, T cells and NK cells were purchased from […] Technologies Inc. Primary B, T and NK cells were plated 24 hours before the experiment at 100,000 cells per well in […] of Roswell Park Memorial Institute (RPMI) medium with 10% fetal bovine serum (FBS) in 96-well plates. Glyco-siRNAs were incubated with cells for 4 hours. After incubation, media was removed and washed three times in PBS or PBS+150 mM NaCl. […] A final concentration of 1 mM dNTP, 5 U/μl transcriptase, 0.38 U/μl Rnase inhibitor, 50 nM stem loop RT primer (IDT) against siRNA targeting beta catenin (5′-[…]-3′ (SEQ ID NO: 21)) was mixed in a 10 μl volume reaction with 1× buffer. Frozen cell lysates were thawed and heated at 95° C. for 10 minutes and 5 μl of the boiled cell lysate was added to each 10 μl of reverse transcription mix. Samples were incubated first in 16° C. for 30 minutes then 42° C. for 30 minutes followed by 85° C. for 5 minutes and the samples were ready to be used for qPCR reaction. […] 1.5 ul of cDNA template from the reverse transcription reaction is added to the qPCR mix to a final volume for 10 μl. Samples were first incubated at 95° C. for 10 minutes followed by 40 cycles of 30 seconds of 95° C. and 1 minute at 60° C. Relative enrichment of siRNA over endogenous Micro-RNAs were calculated based on the Ct value of standard curve.
# FXII = test: Knockdown measured using plasma FXII ELISA; assay type: in vivo, mice; conditions: 10-day post dose
# Method: Glyco-siRNA conjugates were prepared as described in Examples 6 and 7, wherein the siRNA was an HPRT1-siRNA (SEQ ID NOS: 8 and 9).
# Plasma from the 10-day post dose mice was collected using EDTA tube and saved at −80° C. before analysis. The plasma FXII levels were measured using Innov-Research FXII ELISA kit (Cat. No. IMSF12KT) following the provider's instructions.
# Primary T cells = test: In vitro glyco-siRNA internalization by stem loop qPCR, primary T cells; assay type: cell-based
# Method: as §1
# [1] = tested on: Natural Killer (NK) cells; test: In vitro glyco-siRNA internalization by stem loop qPCR, NK cells; assay type: cell-based
# Method: as §1
structure (smiles),measurement,setting,value
"CC(=O)NC1C(OC2C(O)C(CO)OC(OC3C(CO)OC(O)C(O)C3O)C2O)OC(CO)C(OC2OC(CO)C(O)C(OC3OC(CO)C(OC4OC(CO)C(O)C(O)C4OC4OC(C)C(O)C(O)C4O)C(O)C3NC(C)=O)C2O)C1O (stereo not shown) [K-22, Fucα1-2Galb1-4GlcNAcb1-3Galb1-4GlcNAcb1-3Galb1-4Glc]",Binding to DC-SIGNR (20 μg/ml)(RFU),DC-SIGNR,1047827 RFU
"CC(=O)N[C@H]1[C@H](O[C@H]2[C@@H](O)[C@@H](CO)O[C@@H](O[C@H]3[C@H](O)[C@@H](O)C(O)O[C@@H]3CO)[C@@H]2O)O[C@H](CO)[C@@H](O)[C@@H]1O (stereo partly shown) [K-23, GlcNAcb1-3Galb1-4Glc]",Binding to DC-SIGNR (20 μg/ml)(RFU),DC-SIGNR,1047468 RFU
"CC(=O)NC1C(OCC2OC(OC3C(CO)OC(O)C(O)C3O)C(O)C(OC3OC(CO)C(O)C(O)C3NC(C)=O)C2O)OC(CO)C(O)C1O (stereo not shown) [K-27, GlcNAcb1-3(GlcNAcb1-6)Galb1-4Glc]",Binding to DC-SIGNR (20 μg/ml)(RFU),DC-SIGNR,862190.8 RFU
"CC(=O)N[C@H]1[C@H](O[C@H]2[C@@H](O)[C@@H](CO)O[C@@H](O[C@H]3[C@H](O)[C@@H](O)C(O)O[C@@H]3CO)[C@@H]2O)O[C@H](CO)[C@@H](O[C@@H]2O[C@H](CO)[C@H](O)[C@@H](O[C@@H]3O[C@H](CO)[C@@H](O)[C@H](O)[C@H]3NC(C)=O)[C@H]2O)[C@@H]1O (stereo partly shown) [K-28, GlcNAcb1-3Galb1-4GlcNAcb1-3Galb1-4Glc]",Binding to DC-SIGNR (20 μg/ml)(RFU),DC-SIGNR,723698.8 RFU
"CC(=O)N[C@H]1[C@H](O[C@H]2[C@@H](O)[C@@H](CO)O[C@@H](O[C@H]3[C@H](O)[C@@H](O)C(O)O[C@@H]3CO)[C@@H]2O)O[C@H](CO)[C@@H](O[C@@H]2O[C@H](CO)[C@H](O)[C@H](O)[C@H]2O)[C@@H]1O[C@@H]1O[C@@H](C)[C@@H](O)[C@@H](O)[C@@H]1O (stereo partly shown) [K-29, Galb1-4(Fucα1-3)GlcNAcb1-3Galb1-4Glc]",Binding to DC-SIGNR (20 μg/ml)(RFU),DC-SIGNR,718967.2 RFU
"CC(=O)N[C@H]1[C@H](O[C@H]2[C@@H](O)[C@@H](CO)O[C@@H](O[C@H]3[C@H](O)[C@@H](O)C(O)O[C@@H]3CO)[C@@H]2O)O[C@H](CO)[C@@H](O[C@@H]2O[C@H](CO)[C@H](O)[C@H](O)[C@H]2O[C@@H]2O[C@@H](C)[C@@H](O)[C@@H](O)[C@@H]2O)[C@@H]1O (stereo partly shown) [K-30, Fuca1-2Galb1-4GlcNAcb1-3Galb1-4Glc]",Binding to DC-SIGNR (20 μg/ml)(RFU),DC-SIGNR,631597 RFU
"CC(=O)N[C@H]1[C@H](O[C@H]2[C@@H](O)[C@@H](CO)O[C@@H](O[C@H]3[C@H](O)[C@@H](O)C(O)O[C@@H]3CO)[C@@H]2O)O[C@H](CO)[C@@H](O[C@@H]2O[C@H](CO)[C@H](O)[C@H](O[C@H]3O[C@H](CO)[C@H](O)[C@H](O)[C@H]3O)[C@H]2O)[C@@H]1O[C@@H]1O[C@@H](C)[C@@H](O)[C@@H](O)[C@@H]1O (stereo partly shown) [K-31, Gala1-3Galb1-4(Fuca1-3)GlcNAcb1-3Galb1-4Glc]",Binding to DC-SIGNR (20 μg/ml)(RFU),DC-SIGNR,543554.7 RFU
"CC(=O)N[C@H]1[C@H]([C@H](O)[C@H](O)CO)O[C@@](O[C@H](CO)[C@@H](O)[C@@H]2O[C@@](O[C@H]3[C@@H](O)[C@@H](CO)O[C@@H](O[C@H]4[C@H](O)[C@@H](O)C(O)O[C@@H]4CO)[C@@H]3O)(C(=O)O)C[C@H](O)[C@H]2NC(C)=O)(C(=O)O)C[C@@H]1O (stereo partly shown) [K-51, Neu5Ac(a2-8)Neu5Ac(a2-3)Gal(b1-4)Glc]",Binding to Siglec-7 (10 μg/ml)(RFU),Siglec-7,28368.5 RFU
"[N-]=[N+]=NCCO[C@@H]1O[C@H](CO)[C@@H](O)[C@H](O)[C@H]1O [X-2, 2-Azidoethyl β-D-glucopyranoside, reference compound]",Primary B Cell Uptake (Fold Increase vs Naked siRNA),"Primary B cells; Donor 1, 4 hours incubation",2.72 Fold
same,Primary B Cell Uptake (Fold Increase vs Naked siRNA),"Primary B cells; Donor 2, 4 hours incubation",2.17 Fold
same,"Knockdown Relative to PBS Control Measured Using FXII ELISA, % of PBS Control",FXII; 0.1 mg/kg,83.00 % of PBS Control
same,"Knockdown Relative to PBS Control Measured Using FXII ELISA, % of PBS Control",FXII; 1 mg/kg,77.24 % of PBS Control
same,Primary T Cell Uptake (Fold Increase vs Naked siRNA),"Primary T cells; Donor 1, 4 hours incubation",2.83 Fold
same,Primary T Cell Uptake (Fold Increase vs Naked siRNA),"Primary T cells; Donor 2, 4 hours incubation",1.68 Fold
same,NK Cell Uptake (Fold Increase vs Naked siRNA),"[1]; Donor 1 repeat 1, NK cells incubated with glyco-siRNA for 4 hours",2.16 fold
same,NK Cell Uptake (Fold Increase vs Naked siRNA),"[1]; Donor 2 repeat 2, NK cells incubated with glyco-siRNA for 4 hours",2.60 fold
